Measured values reported in US12516022B2, “Derivatives of aryl hydrocarbon receptor agonists” (AZORA THERAPEUTICS, INC., priority 2021, dated 2026).

Key:
[1] = Time course of conversion to indirubin in FaSSIF at 37° C.;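 as to all read-outs here: test compound, about 1-3 mg in 5 mL FaSSIF, sampled and analysed by UPLC-MS with PDA UV (210-400 nm), QDa mass and evaporative light scattering detection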; assay type: physicochemical; conditions: for Conversion to indirubin: over a 24 hour period
[2] = Time course of conversion to indirubin in FaSSGF at 37° C.;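 as to all read-outs here: compound incubated in fasted state simulated gastric fluid, species in samples quantified by UPLC-MS with UV (210–400 nm) and ELS detection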; assay type: physicochemical; conditions: FaSSGF (Example 4; table title prints FaSSIF) 37° C.; for Conversion to indirubin: over a 24 hour period

| SMILES | indirubin ([1]; FaSSIF 37° C. 24 h) [%] | indirubin methylene alcohol ([1]; FaSSIF 37° C. 24 h) [%] | starting material (prodrug compound) ([1]; FaSSIF 37° C. 24 h) [%] | indirubin ([1]; FaSSIF 37° C., 15 min) [%] | indirubin methylene alcohol ([1]; FaSSIF 37° C., 15 min) [%] | starting material (prodrug compound) ([1]; FaSSIF 37° C., 15 min) [%] | indirubin ([1]; FaSSIF 37° C., 30 min) [%] | indirubin methylene alcohol ([1]; FaSSIF 37° C., 30 min) [%] | starting material (prodrug compound) ([1]; FaSSIF 37° C., 30 min) [%] | indirubin ([1]; FaSSIF 37° C., 1 h) [%] | indirubin methylene alcohol ([1]; FaSSIF 37° C., 1 h) [%] | starting material (prodrug compound) ([1]; FaSSIF 37° C., 1 h) [%] | indirubin ([1]; FaSSIF 37° C., 2 h) [%] | indirubin methylene alcohol ([1]; FaSSIF 37° C., 2 h) [%] | starting material (prodrug compound) ([1]; FaSSIF 37° C., 2 h) [%] | Conversion to indirubin ([1]; FaSSIF 37° C.) | further results |
| --- | --- | --- | --- | --- | --- | --- | --- | --- | --- | --- | --- | --- | --- | --- | --- | --- | --- |
| O=C1/C(=C2/C(=O)N(CN3CCOCC3)c3ccccc32)Nc2ccccc21 [drawing 261] | 24 | 7 | 46 | 5 | 0 | 69 | 8 | 3 | 80 | 6 | 0 | 64 | 7 | 4 | 65 | 20-40% |  |
| CN(C)CCN(CCN(C)C)CN1C(=O)/C(=C2\Nc3ccccc3C2=O)c2ccccc21 [drawing 257] | 74 | 4 | 0 | 78 | 13 | 6 | 78 | 13 | 6 | 78 | 13 | 6 | 83 | 10 | 4 | 60-80% |  |
| CN(C)CCN(C)CN1C(=O)/C(=C2\Nc3ccccc3C2=O)c2ccccc21 [drawing 253] | 87 | 7 | 0 | 90 | 7 | 0 | 90 | 7 | 0 | 89 | 6 | 0 | 85 | 6 | 0 | 80-100% |  |
| O=C1/C(=C2/C(=O)N(CO)c3ccccc32)Nc2ccccc21 [drawing 259] | 17 |  | 73 | 12 |  | 81 | 15 |  | 82 | 14 |  | 80 | 17 |  | 79 | 20-40% |  |
| O=C1/C(=C2/C(=O)N(CN3CCCC3)c3ccccc32)Nc2ccccc21 [drawing 255] | 100 | 0 | 0 | 100 | 0 | 0 | 100 | 0 | 0 | 100 | 0 | 0 | 100 | 0 | 0 | 80-100% |  |
| O=C1/C(=C2/C(=O)N(CN3CCCCC3)c3ccccc32)Nc2ccccc21 [drawing 254] |  |  |  |  |  |  |  |  |  |  |  |  |  |  |  | 80-100% |  |
| CCN(CC)CN1C(=O)/C(=C2\Nc3ccccc3C2=O)c2ccccc21 [drawing 252] | 100 | 0 | 0 | 100 | 0 | 0 | 100 | 0 | 0 | 100 | 0 | 0 | 100 | 0 | 0 | 80-100% |  |
| O=C1/C(=C2/C(=O)N(CN3CCC(F)(F)CC3)c3ccccc32)Nc2ccccc21 [drawing 260] | 40 | 0 | 52 | 45 | 0 | 54 | 29 | 0 | 39 | 18 | 0 | 37 | 49 | 0 | 51 | 20-40% |  |
| CNCCNC(=O)N1C(=O)/C(=C2\Nc3ccccc3C2=O)c2ccccc21.Cl [drawing 264] | 0 | 0 | 100 | 0 | 0 | 100 | 0 | 0 | 100 | 0 | 0 | 100 | 0 | 0 | 100 | 0-20% |  |
| O=C1/C(=C2/C(=O)N(COS(=O)(=O)O)c3ccccc32)Nc2ccccc21 [drawing 262] | 12 | 83 | 0 | 7 | 79 | 0 | 14 | 73 | 0 | 7 | 81 | 0 | 7 | 83 | 0 | 0-20% |  |
| CC(=O)N1CCN(CN2C(=O)/C(=C3\Nc4ccccc4C3=O)c3ccccc32)CC1 [drawing 258] | 37 | 14 | 10 | 8 | 12 | 31 | 12 | 14 | 37 | 12 | 12 | 30 | 21 | 10 | 29 | 40-60% |  |
| CN(C)C1CCN(CN2C(=O)/C(=C3\Nc4ccccc4C3=O)c3ccccc32)CC1 [drawing 256] | 72 | 6 | 0 | 61 | 5 | 30 | 62 | 5 | 31 | 58 | 5 | 32 | 70 | 7 | 22 | 60-80% |  |
| CN1CCN(CN2C(=O)/C(=C3\Nc4ccccc4C3=O)c3ccccc32)CC1 [drawing 265] | 30 | 0 | 53 | 8 | 0 | 80 | 12 | 0 | 74 | 11 | 0 | 77 | 18 | 0 | 68 | 0-20% |  |
| O=C1/C(=C2/C(=O)N(CN3CCCCC3)c3ccccc32)Nc2ccccc21 [drawing 269] |  |  |  |  |  |  |  |  |  |  |  |  |  |  |  |  | indirubin ([2]; 15 min): 99%; indirubin methylene alcohol ([2]; 15 min): 0%; starting material (prodrug compound) ([2]; 15 min): 1%; indirubin ([2]; 30 min): 99%; indirubin methylene alcohol ([2]; 30 min): 0%; starting material (prodrug compound) ([2]; 30 min): 1%; indirubin ([2]; 1 h): 99%; indirubin methylene alcohol ([2]; 1 h): 0%; starting material (prodrug compound) ([2]; 1 h): 1%; indirubin ([2]; 2 h): 99%; indirubin methylene alcohol ([2]; 2 h): 0%; starting material (prodrug compound) ([2]; 2 h): 1%; indirubin ([2]; 24 h): 99%; indirubin methylene alcohol ([2]; 24 h): 0%; starting material (prodrug compound) ([2]; 24 h): 1%; Conversion to indirubin [2]: 80-100% |
| CN(C)CCN(C)CN1C(=O)/C(=C2\Nc3ccccc3C2=O)c2ccccc21 [drawing 268] |  |  |  |  |  |  |  |  |  |  |  |  |  |  |  |  | indirubin ([2]; 15 min): 93%; indirubin methylene alcohol ([2]; 15 min): 6%; starting material (prodrug compound) ([2]; 15 min): 0%; indirubin ([2]; 30 min): 93%; indirubin methylene alcohol ([2]; 30 min): 6%; starting material (prodrug compound) ([2]; 30 min): 0%; indirubin ([2]; 1 h): 92%; indirubin methylene alcohol ([2]; 1 h): 7%; starting material (prodrug compound) ([2]; 1 h): 0%; indirubin ([2]; 2 h): 95%; indirubin methylene alcohol ([2]; 2 h): 1%; starting material (prodrug compound) ([2]; 2 h): 0%; indirubin ([2]; 24 h): 95%; indirubin methylene alcohol ([2]; 24 h): 5%; starting material (prodrug compound) ([2]; 24 h): 0%; Conversion to indirubin [2]: 80-100% |
| O=C1/C(=C2/C(=O)N(COS(=O)(=O)O)c3ccccc32)Nc2ccccc21 [drawing 277] |  |  |  |  |  |  |  |  |  |  |  |  |  |  |  |  | indirubin ([2]; 15 min): 0%; indirubin methylene alcohol ([2]; 15 min): 15%; starting material (prodrug compound) ([2]; 15 min): 83%; indirubin ([2]; 30 min): 0%; indirubin methylene alcohol ([2]; 30 min): 23%; starting material (prodrug compound) ([2]; 30 min): 67%; indirubin ([2]; 2 h): 0%; indirubin methylene alcohol ([2]; 2 h): 22%; starting material (prodrug compound) ([2]; 2 h): 72%; indirubin ([2]; 24 h): 0%; indirubin methylene alcohol ([2]; 24 h): 8%; starting material (prodrug compound) ([2]; 24 h): 26%; Conversion to indirubin [2]: 0-20% |
